Read-outs that look alike come from different tables or passages of the source.
Experiments:
Male Wistar rats = experiment: Object recognition task model; assay type: in vivo; conditions: dose mg/kg: Ex 1 0.1, Ex 2 0.03, Ex 4 0.03, Ex 13 1, Ex 23 0.01, Ex 37 10, Ex 43 0.3; for Exploration time mean ± S.E.M, Familiar object / Exploration time mean ± S.E.M, Novel object: choice trial T2, p.o.; for Inference: p.o.
Method: The cognition enhancing properties of compounds of this invention were estimated by using this model.
Male Wistar rats (230-280 grams) were used as experimental animals. Four animals were housed in each cage. Animals were kept on 20% food deprivation before one day and given water ad libitum throughout the experiment and maintained on a 12 hours light/dark cycle. Also the rats were habituated to individual arenas for 1 hour in the absence of any objects.
One group of 12 rats received vehicle (1 mL/Kg) orally and another set of animals received compound of the formula (I) either orally or i.p., before one hour of the familiar (T1) and choice trial (T2).
The experiment was carried out in a 50×50×50 cm open field made up of acrylic. In the familiarization phase, (T1), the rats were placed individually in the open field for 3 minutes, in which two identical objects (plastic bottles, 12.5 cm height×5.5 cm diameter) covered in yellow masking tape alone (a1 and a2) were positioned in two adjacent corners, 10 cms from the walls. After 24 hours of the (T1) trial for long-term memory test, the same rats were placed in the same arena as they were placed in T1 trial. Choice phase (T2) rats were allowed to explore the open field for 3 minutes in presence of one familiar object (a3) and one novel object (b) (Amber color glass bottle, 12 cm high and 5 cm in diameter). Familiar objects presented similar textures, colors and sizes. During the T1 and T2 trial, explorations of each object (defined as sniffing, licking, chewing or having moving vibrissae whilst directing the nose towards the object at a distance of less than 1 cm) were recorded separately by stopwatch. Sitting on an object was not regarded as exploratory activity, however, it was rarely observed.
T1 is the total time spent exploring the familiar objects (a1+a2).
T2 is the total time spent exploring the familiar object and novel object (a3+b).
The object recognition test was performed as described by Behaviour Brain Research, (1988), 31, 47-59.

[1] = Rodent pharmacokinetic study; assay type: in vivo, Male wistar rats; conditions: plasma, Wistar/Male rat; for bioavailability: 3 mg/kg oral vs 1 mg/kg intravenous
Method: Male wistar rats (225±25 grams) were used as experimental animals. Three to five animals were housed in each cage. Two days prior to dosing day, male wistar rats (225-250 grams) were anesthetized with isoflurane for surgical placement of jugular vein catheter. Animals were fasted over night before oral dosing (p.o) and food pellets were allowed 2 hours post dosing, whereas during intravenous dosing food and water were provided as ad libitum. Three rats were dosed with compounds of formula (I) (3 mg/kg) orally and intravenously (1 mg/kg).
At each time point blood was collected through jugular vein and immediately replenish with an equivalent volume of normal saline from freely moving rats. Collected blood was transferred into a labeled eppendr off containing 10 μL of heparin as anticoagulant. Typically blood samples were collected as following time points: Pre dose, 0.08 (only i.v.), 0.25, 0.5, 1, 2, 4, 6, 8, and 24 hours post dose (n=3). Blood was centrifuged at 4000 rpm for 10 minutes. Plasma was prepared and stored frozen at −20° C. until analysis. The concentrations of the compounds of formula (I) were quantified in plasma by qualified LC-MS/MS method using suitable extraction technique. The compounds of formula (I) were quantified in the calibration range around 2-2000 ng/mL in plasma. Study samples were analyzed using calibration samples in the batch and quality control samples spread across the batch.
Pharmacokinetic parameters Cmax, Tmax, AUC1, T1/2 and Bioavailability were calculated by non-compartmental model using standard non-coinpartmental model by using WinNonLin 5.0.1 or Phoenix WinNonlin 6.2 version Software package.

[2] = target: T1, recombinant human 5-HT4 receptor (Homo sapiens, UniProt Q13639); experiment: Determination of EC50 values for 5-HT4 receptor (CHO cells, pCRE-Luc reporter); assay type: cell-based; conditions: for EC50: 4 hours incubation; for Emax: CHO
T1 construct: expressed in transfected cells
T1 sequence (Q13639 whole entry): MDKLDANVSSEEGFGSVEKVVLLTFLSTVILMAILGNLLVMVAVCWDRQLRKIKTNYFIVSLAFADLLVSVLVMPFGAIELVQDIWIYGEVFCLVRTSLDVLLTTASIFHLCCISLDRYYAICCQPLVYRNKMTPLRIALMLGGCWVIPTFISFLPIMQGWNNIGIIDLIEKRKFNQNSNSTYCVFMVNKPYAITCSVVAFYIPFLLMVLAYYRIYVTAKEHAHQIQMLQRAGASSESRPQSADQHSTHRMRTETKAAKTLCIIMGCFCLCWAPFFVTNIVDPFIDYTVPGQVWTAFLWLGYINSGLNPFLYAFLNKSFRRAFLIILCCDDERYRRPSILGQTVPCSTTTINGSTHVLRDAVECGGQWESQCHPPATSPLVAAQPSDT
In short: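 CHO cells stably expressing human 5-HT4 receptor with a CRE-luciferase reporter, serum-starved overnight, then exposed to increasing compound concentrations in OptiMEM for 4 h at 37 °C. Cells lysed and luciferase luminescence plotted against concentration.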

[3] = Rodent brain penetration study; assay type: in vivo, Male Wistar rats; conditions: 3 mg/kg oral (gavage)
Method: Male Wistar rats (225±25 grams) were used as experimental animals. Three animals were housed in each cage. Animals were given water and food ad libitum throughout the experiment and maintained on a 12 hours light/dark cycle. Brain penetration was determined in discrete manner in rats. One day prior to dosing day, male wistar rats (225-250 grams) were acclimatized. After acclimatization the rats were grouped according to their weight. In each group, 3 animals were kept in individual cage and allowed free access to food and water. At each time point (0.50, 1, and 2 hours) n=3 animals were used. The compounds of formula (I) were suitably preformulated and administered orally at (free base equivalent) 3 mg/kg. Blood samples were removed via, cardiac puncture by using isoflurane anesthesia. The animals were sacrificed to collect brain tissue. Plasma was separated and brain samples were homogenized and stored frozen at −20° C. until analysis. The concentrations of the compounds of formula (I) in plasma and brain were determined using LC-MS/MS method. The compounds of formula (I) were quantified in plasma and brain homogenate by qualified LC-MS/MS method using suitable extraction technique. The compounds of formula (I) were quantified in the calibration range of 1-500 ng/mL in plasma and brain homogenate. Study samples were analyzed using calibration samples in the batch and quality control samples spread across the batch. Extent of brain-plasma ratio was calculated (Cb/Cp).

[4] = CHO cells, human 5-HT4 receptor, luciferase reporter

Row | Compound | Exploration time mean ± S.E.M, Familiar object (Male Wistar rats) [s] | Exploration time mean ± S.E.M, Novel object (Male Wistar rats) [s] | Inference (Male Wistar rats) | Cmax ([1]; 1 mg/kg intravenous (bolus)) [ng/mL] | Tmax ([1]; 1 mg/kg intravenous (bolus)) [h] | half-life ([1]; 1 mg/kg intravenous (bolus)) [h] | AUC(0-t) ([1]; 3 mg/kg oral (gavage)) [ng·h/mL] | Cmax ([1]; 3 mg/kg oral (gavage)) [ng/mL] | Tmax ([1]; 3 mg/kg oral (gavage)) [h] | half-life ([1]; 3 mg/kg oral (gavage)) [h] | bioavailability [1] [%] | EC50 [2, 4] [nM] | Emax ([2]; CHO cells, human 5-HT4 receptor, luciferase reporter, read-out: Emax) [%] | Single dose Brain Penetration (Cb/Cp) ([3]; Wistar/Male rat) | AUC(0-t) ([1]; 1 mg/kg intravenous (bolus)) [ng·h/mL] | Emax [2] [%] | Kp ([3]; male, Wistar, rat, brain, po, 3 mg/kg, read-out: Single dose Brain Penetration (Cb/Cp))
1 | Nc1c(Cl)cc(C(=O)NCC2CCN(CC3CCOCC3)CC2)c2ncccc12.O=C(O)/C=C/C(=O)O [Example 1, 5-Amino-6-chloro-N-{[1-(tetrahydro-2H-pyran-4-ylmethyl)-4-piperidinyl]methyl}quinoline-8-carboxamide hemifumarate] | 5.94 ± 0.71 | 16.09 ± 1.75 | Active | 149 ± 6 | 0.08 | 1.9 ± 0.7 | 240 ± 35 | 121 ± 25 | 0.42 ± 0.14 | 4 ± 1.1 | 51 ± 5 | 0.04 | 76 | 0.48 ± 0.03 |  |  | 
2 | Nc1c(Cl)cc(C(=O)NCC2CCN(CC3CCOCC3)CC2)c2ncccc12.O=C(O)C(O)C(O)C(=O)O [Example 13, 5-Amino-6-chloro-N-{[1-(tetrahydro-2H-pyran-4-ylmethyl)-4-piperidinyl]methyl} quinoline-8-carboxamide L(+)-tartarate] | 8.64 ± 1.33 | 15.11 ± 1.81 | Active | 168 ± 12 | 0.08 | 1.5 ± 0.3 | 235 ± 25 | 76 ± 3 | 0.5 | 1.7 ± 0.3 | 37 ± 4 | 0.09 |  |  | 211 ± 20 | 70 | 0.41 ± 0.04
